From US9206156B2, “Substituted indole derivatives” (GRÜNENTHAL GMBH, priority 2008, dated 2015)

What was measured:
[1] = biological target: T1, ORL1 receptor (Homo sapiens, UniProt P41146); experiment: ORL1 receptor binding assay with 3H-nociceptin/orphanin FQ (WGA-SPA beads); details: c=1 μM test substance; 0.5 nM 3H-nociceptin/orphanin FQ; membranes of recombinant CHO-ORL1 cells
T1 construct: expressed in transfected cells; host or cells: CHO (recombinant CHO-ORL1 cells), membranes
Procedure: Measurement of ORL1 Binding
The cyclohexane derivatives having the general formula I were investigated in a receptor binding assay with ^3H-nociceptin/orphanin FQ with membranes of recombinant CHO—ORL1 cells. This test system was conducted in accordance with the method described by Ardati et al. (Mol. Pharmacol., 51, 1997, p. 816-824). The concentration of ^3H-nociceptin/orphanin FQ in these tests was 0.5 nM. The binding assays were carried out with 20 μg amounts of membrane protein per 200 μl batch in 50 mM Hepes, pH 7.4, 10 mM MgCl2 and 1 mM EDTA. The binding to the ORL1 receptor was determined using 1 mg amounts of WGA-SPA beads (Amersham-Pharmacia, Freiburg, Germany), by incubation of the batch for one hour at room temperature and subsequent measurement in a Trilux scintillation counter (Wallac, Finland). The affinity is given in Table 1 as the nanomolar Ki value or in % inhibition at c=1 μM.

[2] = biological target: T2, human μ-opiate receptor (Homo sapiens, UniProt P35372); experiment: μ-opiate receptor binding assay with [3H] naloxone (WGA-SPA beads); details: 1 μmol/l test substance, 1 nmol/l [3H] naloxone, CHO-K1 cell membranes expressing human μ-opiate receptor
T2 construct: purchased NEN, Zaventem, Belgium RB-HOM; host or cells: CHO-K1 cells (membrane preparation)
Procedure: The receptor affinity to the human μ-opiate receptor was determined in a homogeneous batch in microtitre plates. To this end, dilution series of the substituted indole derivative to be tested were incubated for 90 minutes at room temperature with a receptor membrane preparation (15-40 μg protein per 250 μl incubation batch) of CHO-K1 cells, which express the human μ-opiate receptor (RB—HOM receptor membrane preparation from NEN, Zaventem, Belgium), in the presence of 1 nmol/l of the radioactive ligand [^3H] naloxone (NET719, NEN, Zaventem, Belgium) and 1 mg of WGA-SPA beads (wheat germ agglutinin SPA beads from Amersham/Pharmacia, Freiburg, Germany) in a total volume of 250 μl. 50 mmol/l tris-HCl supplemented with 0.05 wt. % sodium azide and 0.06 wt. % bovine serum albumin were used as the incubation buffer. In order to determine the non-specific binding, 25 μmol/l of naloxone were also added. At the end of the ninety-minute incubation period the microtitre plates were centrifuged for 20 minutes at 1000 g and the radioactivity was measured in a β counter (Microbeta-Trilux, PerkinElmer Wallac, Freiburg, Germany). The percentage displacement of the radioactive ligand from its binding to the human μ-opiate receptor was determined at a test substance concentration of 1 μmol/l and stated as the percentage inhibition (% inhibition) of the specific binding. In some cases the percentage displacement due to differing concentrations of the compounds having the general formula I to be tested was used to calculate the IC50 inhibition concentrations which bring about a 50-percent displacement of the radioactive ligand. Ki values for the test substances were obtained by extrapolation using the Cheng-Prusoff equation.

T1 sequence (P41146 whole entry): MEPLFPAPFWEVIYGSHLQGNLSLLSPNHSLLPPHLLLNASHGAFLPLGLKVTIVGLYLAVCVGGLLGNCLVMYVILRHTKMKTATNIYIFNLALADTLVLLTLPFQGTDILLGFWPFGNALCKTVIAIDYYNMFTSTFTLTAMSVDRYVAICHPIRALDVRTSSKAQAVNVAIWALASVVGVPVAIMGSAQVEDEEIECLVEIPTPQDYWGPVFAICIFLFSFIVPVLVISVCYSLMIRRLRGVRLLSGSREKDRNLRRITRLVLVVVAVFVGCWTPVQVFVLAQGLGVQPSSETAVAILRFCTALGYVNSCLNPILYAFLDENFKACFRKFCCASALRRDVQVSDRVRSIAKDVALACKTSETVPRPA
T2 sequence (P35372 whole entry): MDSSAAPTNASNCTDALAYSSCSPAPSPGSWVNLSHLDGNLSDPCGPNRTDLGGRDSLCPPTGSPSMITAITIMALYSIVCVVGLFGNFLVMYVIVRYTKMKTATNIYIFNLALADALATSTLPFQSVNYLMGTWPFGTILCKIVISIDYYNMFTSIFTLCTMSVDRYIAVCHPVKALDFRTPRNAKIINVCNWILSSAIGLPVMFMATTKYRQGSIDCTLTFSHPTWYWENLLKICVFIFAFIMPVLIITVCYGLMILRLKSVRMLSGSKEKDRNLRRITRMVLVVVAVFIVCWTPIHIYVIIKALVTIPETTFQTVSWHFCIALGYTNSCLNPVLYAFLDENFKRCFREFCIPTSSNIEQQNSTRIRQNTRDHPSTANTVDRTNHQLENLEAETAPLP

In the case of `CN(CCN1CCC(c2ccccc2)(N(C)C)CC1)Cc1ccc2cc[nH]c2c1` [Example 181, 1-(2-(((1H-indol-6-yl)methyl)(methyl)amino)ethyl)-N,N-dimethyl-4-phenylpiperidin-4-amine], the inhibition at 1 µM [1] is reported as 96% and the inhibition at 1 µM [2] is reported as 34%.

Work on `CN(CCN1CCC(c2ccccc2)(N2CCCC2)CC1)C(=O)Cc1c[nH]c2ccc(Br)cc12` [Example 62, 2-(5-Bromo-1H-indol-3-yl)-N-methyl-N-(2-(4-phenyl-4-(pyrrolidin-1-yl)piperidin-1-yl)ethyl)acetamide] yielded an inhibition at 1 µM [1] of 14% and an inhibition at 1 µM [2] of 57%.

`CN(C)C1(c2cccs2)CCN(C(=O)CNC(=O)c2cccc3c2ccn3C)CC1` [Example 135, N-(2-(4-(dimethylamino)-4-(thiophen-2-yl)piperidin-1-yl)-2-oxoethyl)-1-methyl-1H-indole-4-carboxamide] was tested, and the inhibition at 1 µM [1] was 27% and the inhibition at 1 µM [2] was 61%.

In the case of `CCCCC1(N(C)C)CCN(CCN(C)Cc2cccc3cc[nH]c23)CC1` [Example 157, 1-(2-(((1H-indol-7-yl)methyl)(methy)amino)ethyl)-4-butyl-N,N-dimethylpiperidin-4-amine], the “% Inhibition (ORL1) at 1 μM” value [1] is reported as 30% and the “% Inhibition (μ) at 1 μM” value [2] is reported as 96%.

For `CN(C(=O)Cc1c[nH]c2ccc(Br)cc12)C(C(=O)N1CCC(c2cccs2)(N(C)C)CC1)c1ccccc1` (centres unmarked) [Example 100, 2-(5-bromo-1H-indol-3-yl)-N-(2-(4-(dimethylamino)-4-(thiophen-2-yl)piperidin-1-yl)-2-oxo-1-phenylethyl)-N-methylacetamide], the inhibition at 1 µM [1] was 69% and the inhibition at 1 µM [2] was 95%.

For `CN(CCN1CCC(c2ccccc2)(N2CCCC2)CC1)Cc1ccc2[nH]ccc2c1` [Example 140, N-((1H-indol-5-yl)methyl)-N-methyl-2-(4-phenyl-4-(pyrrolidin-1-yl)piperidin-1-yl)ethanamine], the inhibition at 1 µM [1] was 17% and the inhibition at 1 µM [2] was 54%.

`CN(CCN1CCC(c2ccccc2)(N(C)C)CC1)C(=O)c1cc2cc(F)ccc2[nH]1` [Example 16, N-(2-(4-(Dimethylamino)-4-phenylpiperidin-1-yl)ethyl)-5-fluoro-N-methyl-1H-indole-2-carboxamide] gave an inhibition at 1 µM [1] of 89% and an inhibition at 1 µM [2] of 94%.

`CN(CCN1CCC(c2ccccc2)(N(C)C)CC1)C(=O)C1CCCc2c1[nH]c1ccc(Cl)cc21` (centres unmarked) [Example 25, 6-Chloro-N-(2-(4-(dimethylamino)-4-phenylpiperidin-1-yl)ethyl)-N-methyl-2,3,4,9-tetrahydro-1H-carbazole-1-carboxamide] was tested, and the “% Inhibition (ORL1) at 1 μM” value [1] was 62% and the “% Inhibition (μ) at 1 μM” value ([2]; 1 µM) was 86%.

`CN(C)c1ccc2cc(C(=O)NCCC(=O)N3CCC(c4ccccc4)(N(C)C)CC3)[nH]c2c1` [Example 120, 6-(dimethylamino)-N-(3-(4-(dimethylamino)-4-phenylpiperidin-1-yl)-3-oxopropyl)-1H-indole-2-carboxamide] gave an inhibition at 1 µM [1] of 45% and an inhibition at 1 µM [2] of 60%.

`CN(C)C1(c2cccs2)CCN(C(=O)CC(NC(=O)c2ccc3ccn(C)c3c2)c2ccccc2)CC1` (centres unmarked) [Example 101, N-(3-(4-(dimethylamino)-4-(thiophen-2-yl)piperidin-1-yl)-3-oxo-1-phenylpropyl)-1-methyl-1H-indole-6-carboxamide] showed an inhibition at 1 µM [1] of 68% and an inhibition at 1 µM [2] of 96%.

Compound `CN(C)C1(c2cccs2)CCN(CCNCc2c[nH]c3ccccc23)CC1` [Example 179, 1-(2-((1H-indol-3-yl)methylamino)ethyl)-N,N-dimethyl-4-(thiophen-2-yl)piperidin-4-amine] has an inhibition at 1 µM [1] of 97% and an inhibition at 1 µM [2] of 76%.

In the case of `CC(C)C(C(=O)N1CCC(c2ccccc2)(N(C)C)CC1)N(C)C(=O)Cc1c[nH]c2cc(F)ccc12` (centres unmarked) [Example 82, N-(1-(4-(dimethylamino)-4-phenylpiperidin-1-yl)-3-methyl-1-oxobutan-2-yl)-2-(6-fluoro-1H-indol-3-yl)-N-methylacetamide], the inhibition at 1 µM [1] is reported as 97% and the inhibition at 1 µM [2] is reported as 97%.

Compound `CN(C)C1(c2ccccc2)CCN(C(=O)C2CN(C(=O)c3cccc4c3ccn4C)c3ccccc32)CC1` (centres unmarked) [Example 114, (4-(dimethylamino)-4-phenylpiperidin-1-yl)(1-(1-methyl-1H-indole-4-carbonyl)indolin-3-yl)methanone] has an inhibition at 1 µM [1] of 56% and an inhibition at 1 µM [2] of 90%.

Work on `CC(CC(=O)N(C)CCN1CCC(c2ccccc2)(N(C)C)CC1)c1c[nH]c2ccccc12` (centres unmarked) [Example 20, N-(2-(4-(Dimethylamino)-4-phenylpiperidin-1-yl)ethyl)-3-(1H-indol-3-yl)-N methylbutanamide] yielded an inhibition at 1 µM [1] of 68% and an inhibition at 1 µM [2] of 88%.

`CC(C)C(C(=O)N1CCC(c2ccccc2)(N(C)C)CC1)N(C)Cc1ccc2[nH]ccc2c1` (centres unmarked) [Example 146, 2-(((1H-indol-5-yl)methyl)(methyl)amino)-1-(4-(dimethylamino)-4-phenylpiperidin-1-yl)-3-methylbutan-1-one] gave an inhibition at 1 µM [1] of 24% and an inhibition at 1 µM [2] of 53%.

`CN(CCN1CCC(c2ccccc2)(N(C)C)CC1)C(=O)c1ccc2ccn(C)c2c1` [Example 119, N-(2-(4-(dimethylamino)-4-phenylpiperidin-1-yl)ethyl)-N,1-dimethyl-1H-indole-6-carboxamide] gave an inhibition at 1 µM [1] of 45% and an inhibition at 1 µM [2] of 95%.

With `CC(C)c1ccc2c(CN(C)CCN3CCC(c4ccccc4)(N(C)C)CC3)c[nH]c2c1` [Example 73, 1-(2-(((6-Isopropyl-1H-indol-3-yl)methyl)(methyl)amino)ethyl)-N,N-dimethyl-4-phenylpiperidin-4-amine] the “% Inhibition (ORL1) at 1 μM” value [1] was 95% and the “% Inhibition (μ) at 1 μM” value [2] was 95%.

`CN(CCCN1CCC(c2ccccc2)(N(C)C)CC1)C(=O)c1ccc2ccn(C)c2c1` [Example 39, N-(3-(4-(Dimethylamino)-4-phenylpiperidin-1-yl)propyl)-N,1-dimethyl-1H-indole-6-carboxamide] gave an inhibition at 1 µM [1] of 32% and an inhibition at 1 µM [2] of 76%.

Work on `CN(C)C1(c2ccccc2)CCN(C(=O)C2CCCN(Cc3c[nH]c4ccc(Br)cc34)C2)CC1` (centres unmarked) [Example 155, (1-((5-bromo-1H-indol-3-yl)methyl)piperidin-3-yl)(4-(dimethylamino)-4-phenylpiperidin-1-yl) methanone] yielded an inhibition at 1 µM [1] of 69% and an inhibition at 1 µM [2] of 89%.

`CN(C)C1(c2ccccc2)CCN(C(=O)C2CCCN(C(=O)c3c[nH]c4ccccc34)C2)CC1` (centres unmarked) [Example 131, (1-(1H-indole-3-carbonyl)piperidin-3-yl)(4-(dimethylamino)-4-phenylpiperidin-1-yl)methanone] showed an inhibition at 1 µM [1] of 34% and an inhibition at 1 µM [2] of 43%.

For `CN(CCN1CCC(c2ccccc2)(N2CCCC2)CC1)C(=O)C1CCCc2c1[nH]c1ccc(Cl)cc21` (centres unmarked) [Example 42, 6-Chloro-N-methyl-N-(2-(4-phenyl-4-(pyrrolidin-1-yl)piperidin-1-yl)ethyl)-2,3,4,9-tetrahydro-1H-carbazole-1-carboxamide], the inhibition at 1 µM [1] was 22% and the inhibition at 1 µM [2] was 28%.

`CN(CCN1CCC(c2ccccc2)(N(C)C)CC1)Cc1cccc2[nH]ccc12` [Example 195, 1-(2-(((1H-indol-4-yl)methyl)(methy)amino)ethyl)-N,N-dimethyl-4-phenylpiperidin-4-amine] was tested, and the “% Inhibition (ORL1) at 1 μM” value [1] was 56% and the “% Inhibition (μ) at 1 μM” value ([2]; 1 µM) was 78%.

In the case of `CC(C)c1ccc2c(CN(C)CCCN3CCC(c4cccs4)(N(C)C)CC3)c[nH]c2c1` [Example 67, 1-(3-(((6-Isopropyl-1H-indol-3-yl)methyl)(methyl)amino)propyl)-N,N-dimethyl-4-(thiophen-2-yl)piperidin-4-amine], the inhibition at 1 µM [1] is reported as 90% and the inhibition at 1 µM [2] is reported as 93%.

`CC(C)C(C(=O)N1CCC(c2ccccc2)(N(C)C)CC1)N(C)C(=O)CCc1cn(C)c2ccccc12` (centres unmarked) [Example 132, N-(1-(4-(dimethylamino)-4-phenylpiperidin-1-yl)-3-methyl-1-oxobutan-2-yl)-N-methyl-3-(1-methyl-1H-indol-3-yl)propanamide] gave an inhibition at 1 µM [1] of 34% and an inhibition at 1 µM [2] of 63%.

For `CN(C)C1(c2ccccc2)CCN(C(=O)C2CCCN(C(=O)c3cc4cc(F)ccc4[nH]3)C2)CC1` (centres unmarked) [Example 104, (4-(dimethylamino)-4-phenylpiperidin-1-yl)(1-(5-fluoro-1H-indole-2-carbonyl)piperidin-3-yl)methanone], the inhibition at 1 µM [1] was 64% and the inhibition at 1 µM [2] was 89%.
